In brackets after ≈: the same amount, converted by molar mass. Activity calls are given as the source filed them. No cut-off for these calls is given here.
Experiments:
[1] = tested on: Plasmodium falciparum; assay: Antimalarial activity against chloroquine-resistant Plasmodium falciparum K1 after 24 hrs by hypoxanthine incorporation assay; assay type: functional, organism-based; conditions: K1, 24 h
[2] = tested on: Plasmodium falciparum; assay: Antimalarial activity against chloroquine-sensitive Plasmodium falciparum NF54 after 24 hrs by hypoxanthine incorporation assay; assay type: functional, organism-based; conditions: NF54, 24 h
[3] = tested on: Plasmodium falciparum; assay: Antimalarial activity against ring stage Plasmodium falciparum 3D7 at 1.82 uM after 72 hrs by DAPI-staining based confocal microscopy; assay type: functional
[4] = tested on: Plasmodium falciparum; assay: Antimalarial activity against ring stage Plasmodium falciparum Dd2 at 1.82 uM after 72 hrs by DAPI-staining based confocal microscopy; assay type: functional
[5] = Plasma protein binding in human by reverse phase gradient HPLC analysis; assay type: ADME, cell-free; conditions: read-out: PPB (converted)
[6] = Half life in human liver microsomes at 1 uM; assay type: ADME, Microsome
[7] = Partition coefficient, log D of the compound at pH 7.4 by phase gradient HPLC analysis; assay type: physicochemical; conditions: octanol/water
[8] = Kinetic solubility of the compound in phosphate buffer after 30 mins by nephelometry at pH 6.5; assay type: physicochemical; conditions: read-out: Kinetic_solubility
[9] = Intrinsic clearance in human liver microsomes at 1 uM up to 60 mins; assay type: ADME, Microsome; conditions: read-out: CLH
[10] = tested on: Plasmodium berghei; assay: Antimalarial activity against Plasmodium berghei ANKA expressing GFP infected in Sprague-Dawley rat assessed as mean survival days of host at 30 mg/kg, po administered as single dose; assay type: functional
[11] = tested on: Plasmodium berghei; assay: Antimalarial activity against Plasmodium berghei ANKA expressing GFP infected in Sprague-Dawley rat assessed as reduction in parasitemia at 50 mg/kg, po administered as 4 doses measured on day 4 post-infection by flow cytometry; assay type: functional; design: scale not given: the % may be the effect or the level left
[12] = tested on: Plasmodium berghei; assay: Antimalarial activity against Plasmodium berghei ANKA expressing GFP infected in Sprague-Dawley rat assessed as reduction in parasitemia at 30 mg/kg, po administered as single dose measured on day 3 post-infection by flow cytometry; assay type: functional; design: scale not given: the % may be the effect or the level left
[13] = tested on: Plasmodium berghei; assay: Antimalarial activity against Plasmodium berghei ANKA expressing GFP infected in Sprague-Dawley rat assessed as mean survival days of host at 100 mg/kg, po administered as single dose; assay type: functional
[14] = tested on: Plasmodium berghei; assay: Antimalarial activity against Plasmodium berghei ANKA expressing GFP infected in Sprague-Dawley rat assessed as reduction in parasitemia at 100 mg/kg, po administered as single dose measured on day 3 post-infection by flow cytometry; assay type: functional; design: scale not given: the % may be the effect or the level left
[15] = tested on: Plasmodium berghei; assay: Antimalarial activity against Plasmodium berghei ANKA expressing GFP infected in Sprague-Dawley rat assessed as mean survival days of host at 50 mg/kg, po administered as 4 doses; assay type: functional
[16] = tested on: Plasmodium berghei; assay: Antimalarial activity against Plasmodium berghei ANKA expressing GFP infected in Sprague-Dawley rat assessed as reduction in parasitemia at 3 mg/kg, po administered as single dose measured on day 3 post-infection by flow cytometry; assay type: functional; design: scale not given: the % may be the effect or the level left
[17] = tested on: Plasmodium berghei; assay: Antimalarial activity against Plasmodium berghei ANKA expressing GFP infected in Sprague-Dawley rat assessed as mean survival days of host at 3 mg/kg, po administered as single dose; assay type: functional
[18] = tested on: Plasmodium berghei; assay: Antimalarial activity against Plasmodium berghei ANKA expressing GFP infected in Sprague-Dawley rat assessed as total cure from parasite at 50 mg/kg, po administered as 4 doses measured on day 30 post-infection by flow cytometry; assay type: functional, organism-based; design: dose 50 mg/kg
[19] = tested on: Plasmodium berghei; assay: Antimalarial activity against Plasmodium berghei ANKA expressing GFP infected in Sprague-Dawley rat assessed as host survival at 3 mg/kg, po administered as single dose measured 6 days post-infection; assay type: functional, organism-based; design: dose 3 mg/kg
[20] = tested on: Plasmodium berghei; assay: Antimalarial activity against Plasmodium berghei ANKA expressing GFP infected in Sprague-Dawley rat assessed as reduction in parasitemia at 10 mg/kg, po administered as single dose measured on day 3 post-infection by flow cytometry; assay type: functional; design: scale not given: the % may be the effect or the level left
[21] = tested on: Plasmodium berghei; assay: Antimalarial activity against Plasmodium berghei ANKA expressing GFP infected in Sprague-Dawley rat assessed as mean survival days of host at 10 mg/kg, po administered as single dose; assay type: functional

Row | Structure (SMILES) | IC50 [1] | IC50 [2] | fraction unbound [5] | half-life at 1 µM [6] | chromatographic logD [7] | solubility kinetic at 0.5 h [8] | microsomal CLint at 1 µM [9] | further results
1 | CS(=O)(=O)c1ccc(-c2cnc(N)c(-c3ccnc(C(F)(F)F)c3)c2)cc1 | 0.155 µM | 0.181 µM |  |  |  |  |  | 
2 | CS(=O)(=O)c1ccc(-c2cnc(N)c(-c3cnc(N)nc3)c2)cc1 | 0.12 µM | 0.12 µM |  |  |  |  |  | 
3 | Nc1ncc(-c2ccc(Cl)cc2)cc1-c1cccc(CO)c1 |  |  |  |  |  |  |  | Activity [3]: 50%; Activity [4]: 50%
4 | COc1cc(-c2cc(-c3ccc(S(C)(=O)=O)cc3)cnc2N)ccc1O | 0.049 µM | 0.049 µM | 0.172 | 1.72 h | 1.9 | 6.3 µg/mL (≈ 17 µM) | 17 µL/min/mg | Activity [3]: >80%; Activity [4]: >80%
5 | CS(=O)(=O)c1ccc(-c2cnc(N)c(-c3ccc(C(F)(F)F)cc3Cl)c2)cc1 | 0.818 µM | 0.806 µM |  |  |  |  |  | 
6 | COc1ncc(-c2cc(-c3ccc(S(C)(=O)=O)cc3)cnc2N)cc1Cl | 2.13 µM | 2.23 µM |  |  |  |  |  | 
7 | CS(=O)(=O)c1ccc(-c2cnc(N)c(-c3ccc4nonc4c3)c2)cc1 | 0.52 µM | 0.47 µM |  |  |  |  |  | 
8 | CNC(=O)c1ccc(-c2cc(-c3ccc(S(C)(=O)=O)cc3)cnc2N)cc1 | 0.071 µM | 0.079 µM | 0.182 | > 5.83 h | 1.7 | 25 µg/mL (≈ 65.5 µM) | < 5 µL/min/mg | MSD [10]: 7 days; Activity [11]: 99.7%; Activity [12]: 77%; MSD [13]: 6 days; Activity [14]: 98%; MSD [15]: 9 days
9 | Cc1ccc(-c2cc(-c3ccc(S(C)(=O)=O)cc3)cnc2N)cc1C(F)(F)F | 0.019 µM | 0.021 µM | 0.031 | 1.25 h | 3.6 | 1.6 µg/mL (≈ 3.94 µM) | 23 µL/min/mg | 
10 | Cc1ccc(-c2cc(-c3ccc(S(C)(=O)=O)cc3)cnc2N)cn1 | 0.029 µM | 0.028 µM | 0.256 | > 5.83 h | 1.8 | 50 µg/mL (≈ 147 µM) | < 5 µL/min/mg | MSD [10]: 8 days; Activity [16]: <40%; Activity [11]: 99.8%; MSD [17]: 3 days; Activity [12]: 99.2%; MSD [15]: >30 days; Activity [18]: Active; Activity [19]: inactive
11 | COc1ncccc1-c1cc(-c2ccc(S(C)(=O)=O)cc2)cnc1N | 1.11 µM | 1.23 µM |  |  |  |  |  | 
12 | CS(=O)(=O)c1ccc(-c2cnc(N)c(-c3ccc4nccnc4c3)c2)cc1 | 0.59 µM | 0.62 µM |  |  |  |  |  | 
13 | CS(=O)(=O)c1ccc(-c2cnc(N)c(-c3ccc(C#N)cc3)c2)cc1 | 0.15 µM | 0.16 µM |  | > 5.83 h | 2.4 | 1.6 µg/mL (≈ 4.58 µM) | < 5 µL/min/mg | MSD [10]: 10 days; Activity [11]: 99.7%; Activity [12]: 99.1%; MSD [13]: 14 days; Activity [14]: >99.4%; MSD [15]: >30 days
14 | CS(=O)(=O)c1ccc(-c2cnc(N)c(-c3ccc(OCCN4CCCC4)cc3)c2)cc1 | 2.16 µM | 2.07 µM |  |  |  |  |  | 
15 | CCN(CC)CCCC(C)Nc1ccnc2cc(Cl)ccc12 (stereo not given) [CHLOROQUINE] |  |  |  |  |  |  |  | MSD [10]: 9 days; Activity [20]: 99.5%; Activity [16]: 83%; MSD [17]: 7 days; Activity [12]: 99.7%; MSD [13]: 12 days; MSD [21]: 7 days
16 | CS(=O)(=O)c1ccc(-c2cnc(N)c(-c3ccc(F)nc3)c2)cc1 | 0.5 µM | 0.64 µM | 0.431 | 4.12 h | 1.1 | 25 µg/mL (≈ 72.8 µM) | < 7 µL/min/mg | 
17 | CS(=O)(=O)c1ccc(-c2cnc(N)c(-c3ccc(CO)nc3)c2)cc1 | 0.169 µM | 0.171 µM | 0.541 | > 4.17 h | 1.2 | 25 µg/mL (≈ 70.3 µM) | < 7 µL/min/mg | 
